According to the NIST ThermoML archive (doi:10.1021/je800998u):

Details: for molar entropy / mass density: 101.33 kPa; for molar entropy: Small (less than 1 g) adiabatic calorimetry; for mass density: Pycnometric method; for vapor or sublimation pressure: Ebulliometric method (Recirculating still); for Triple point temperature: Adiabatic calorimetry

CC(C)COCC(C)C [diisobutyl ether]
Details	mass density [kg/m3]	molar entropy [J/K/mol]	vapor or sublimation pressure [kPa]
10 K, Crystal 2	–	0.4387	–
15 K, Crystal 2	–	2.36	–
20 K, Crystal 2	–	5.506	–
25 K, Crystal 2	–	9.633	–
30 K, Crystal 2	–	14.45	–
35 K, Crystal 2	–	19.69	–
40 K, Crystal 2	–	25.17	–
45 K, Crystal 2	–	30.79	–
50 K, Crystal 2	–	36.49	–
55 K, Crystal 2	–	42.24	–
60 K, Crystal 2	–	48.03	–
65 K, Crystal 2	–	53.84	–
70 K, Crystal 2	–	59.61	–
75 K, Crystal 2	–	65.3	–
80 K, Crystal 2	–	70.92	–
85 K, Crystal 2	–	76.51	–
90 K, Crystal 2	–	82.09	–
95 K, Crystal 2	–	87.65	–
100 K, Crystal 2	–	93.17	–
110 K, Crystal 2	–	104	–
120 K, Crystal 2	–	114.8	–
130 K, Crystal 2	–	125.4	–
140 K, Crystal 2	–	135.9	–
150 K, Crystal 2	–	146.4	–
160 K, Crystal 2	–	157.1	–
170.71 K, Crystal 1	–	179.1	–
170.71 K, Crystal 2	–	168.6	–
180 K, Crystal 1	–	188.8	–
190.4 K, Crystal 1	–	200.4	–
190.4 K, Liquid	–	259.9	–
200 K, Liquid	–	272.1	–
210 K, Liquid	–	284	–
220 K, Liquid	–	295.5	–
230 K, Liquid	–	306.6	–
240 K, Liquid	–	317.3	–
250 K, Liquid	–	327.8	–
260 K, Liquid	–	338	–
270 K, Liquid	–	348	–
280 K, Liquid	–	357.7	–
290 K, Liquid	–	367.2	–
298.06 K, Liquid	748.62	–	–
298.07 K, Liquid	748.49	–	–
298.09 K, Liquid	748.45	–	–
298.14 K, Liquid	748.69	–	–
298.15 K, Liquid	–	374.8	–
298.18 K, Liquid	748.69	–	–
298.22 K, Liquid	748.09	–	–
300 K, Liquid	–	376.5	–
302.68 K, Liquid	743.72	–	–
302.73 K, Liquid	744.19	–	–
302.79 K, Liquid	743.67	–	–
302.81 K, Liquid	744.14	–	–
302.83 K, Liquid	743.5	–	–
302.86 K, Liquid	743.47	–	–
310 K, Liquid	–	385.6	–
312.72 K, Liquid	733.67	–	–
312.95 K, Liquid	733.53	–	–
312.99 K, Liquid	733.64	–	–
313.02 K, Liquid	733.56	–	–
313.03 K, Liquid	734	–	–
320 K, Liquid	–	394.6	–
330 K, Liquid	–	403.5	–
330.9 K, Liquid	–	–	10.75
336.08 K, Liquid	–	–	13.37
340 K, Liquid	–	412.1	–
341.66 K, Liquid	–	–	16.76
347.21 K, Liquid	–	–	20.79
350 K, Liquid	–	420.8	–
352.09 K, Liquid	–	–	24.97
357.89 K, Liquid	–	–	30.79
360 K, Liquid	–	429.3	–
363.27 K, Liquid	–	–	37.12
369.46 K, Liquid	–	–	45.66
370 K, Liquid	–	437.7	–
375.78 K, Liquid	–	–	55.91
381.77 K, Liquid	–	–	67.26
388.15 K, Liquid	–	–	81.3
392.78 K, Liquid	–	–	92.88
393.58 K, Liquid	–	–	95
394.37 K, Liquid	–	–	97.12
395.14 K, Liquid	–	–	99.28

Details	Triple point temperature [K]
Crystal 1	190.4
Crystal 2	170.71
